For one experiment, the target named is WT LuxN (Vibrio campbellii, UniProt A7MRY4). The conditions noted are these: XK847.
The subject of a further experiment is Kin^off LuxN mutants. The experiment can be described thus: Bioluminescence of V. harveyi XK006 harboring Kin^off biased luxN alleles. Format: cell-based, Vibrio harveyi. The conditions noted are these: 10 μM 3O-C12 HSL.
The next experiment addresses LuxN (Vibrio campbellii, UniProt A7MRY4). Format: cell-based, Vibrio harveyi. The conditions noted are these: IC50 values measured at various concentrations of AI-1.
The target in a further experiment is T1, LuxN^G147D/Y194H (Vibrio campbellii, UniProt A7MRY4, G147D/Y194H).
T1 sequence (A7MRY4 1-849 G147D/Y194H): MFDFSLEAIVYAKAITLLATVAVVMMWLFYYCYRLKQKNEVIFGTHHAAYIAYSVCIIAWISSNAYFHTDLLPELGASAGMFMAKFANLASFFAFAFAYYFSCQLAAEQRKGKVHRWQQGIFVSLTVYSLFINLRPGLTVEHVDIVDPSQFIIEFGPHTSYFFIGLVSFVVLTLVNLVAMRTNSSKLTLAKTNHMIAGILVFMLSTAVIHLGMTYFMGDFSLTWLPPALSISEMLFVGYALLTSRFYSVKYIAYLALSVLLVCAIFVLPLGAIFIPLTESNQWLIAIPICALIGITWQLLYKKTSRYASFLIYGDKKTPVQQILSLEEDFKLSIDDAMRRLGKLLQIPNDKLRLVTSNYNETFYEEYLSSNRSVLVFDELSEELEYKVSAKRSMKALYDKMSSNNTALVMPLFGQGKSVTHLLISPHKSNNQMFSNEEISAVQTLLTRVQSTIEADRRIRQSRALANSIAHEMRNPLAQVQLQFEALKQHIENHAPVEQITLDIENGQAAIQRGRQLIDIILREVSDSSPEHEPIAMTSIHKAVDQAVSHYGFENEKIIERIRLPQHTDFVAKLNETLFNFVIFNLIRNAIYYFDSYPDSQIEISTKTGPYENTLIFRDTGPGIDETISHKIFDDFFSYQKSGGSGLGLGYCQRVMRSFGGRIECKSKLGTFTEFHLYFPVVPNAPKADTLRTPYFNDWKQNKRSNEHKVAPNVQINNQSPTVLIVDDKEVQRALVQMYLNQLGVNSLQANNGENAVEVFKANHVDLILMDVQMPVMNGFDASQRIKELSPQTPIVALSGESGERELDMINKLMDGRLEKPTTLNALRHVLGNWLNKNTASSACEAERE
Put plainly: Bioluminescence of V. harveyi XK006 carrying luxN G147D/Y194H. Format: cell-based, Vibrio harveyi. As to conditions: 10 μM C8 HSL.

The target in another experiment is T2, LuxN^L166H/N176D (Vibrio campbellii, UniProt A7MRY4, L166H/N176D).
T2 sequence (A7MRY4 1-849 L166H/N176D): T1 sequence (A7MRY4 1-849 G147D/Y194H) with D147G, L166H, N176D, H194Y
Put plainly: Bioluminescence of V. harveyi XK006 carrying luxN L166H/N176D. As to conditions: 10 μM C8 HSL. Format: cell-based, Vibrio harveyi.

A further experiment has as its system AinR^Q204H. Put plainly: Bioluminescence of V. harveyi XK006 harboring ainR Q204H. In kind it is cell-based, Vibrio fischeri.
Experiment [1] deals with AinR Ser^203 replaced by Ile. The experiment can be described thus: Bioluminescence of V. harveyi XK006 harboring ainR S203I. In kind it is cell-based, Vibrio fischeri.
The target of a further experiment is LuxN^L166A (Vibrio campbellii, UniProt A7MRY4, L166A).
A further experiment deals with WT AinR. Put plainly: Bioluminescence of V. harveyi XK006 harboring WT V. fischeri ainR. In kind it is cell-based, Vibrio fischeri.
The next experiment deals with luxN^L166A/H210N (Vibrio campbellii, UniProt A7MRY4, H210N/L166A). As to conditions: AHLs added at 1 μM.

The source of these data is PMC4275348 (Molecular microbiology, 2014).

Numbering of substitutions follows the chain as printed. “Also recorded” adds a separate entry of the source.

For `CCCCCCCCCC(=O)CC(=O)N[C@H]1CCOC1=O` [3O-C12 HSL], the light production phenotype entry on WT LuxN is reported as “completely dark phenotype”. Further, the “inhibition of light production” value in the experiment with Kin^off LuxN mutants was “inhibited light production to basal levels; also recorded: reduced light production to basal levels”. Further, the mechanism of antagonism result on LuxN is listed as “competitive”.

Turning to `CCCCCCCC(=O)N[C@H]1CCOC1=O` [C8 HSL], at LuxN^G147D/Y194H, the “induction of light production” value was 10 fold. Also, on LuxN^L166H/N176D, the “higher light compared to DMSO or 20 nM AI-1” value is given as 3 fold. Also, the “detection (light production)” value was “retained the capability to detect” in the experiment with AinR^Q204H, “most potent agonist” in [1] and “only modest detection” on LuxN^L166A. Moreover, the values for the light production result with WT AinR (AHLs added at 1 μM) and on luxN^L166A/H210N were “light production was induced” and “produced maximal light”, respectively. Moreover, in the experiment on WT AinR (dose response (Table S3)), the “sensitivity of the reporter” value is reported as “most sensitive”. Also, the mechanism of antagonism result at LuxN is “behaved similarly to 3O-C12 HSL”.
